Results on five compounds are retold here after patent US20100087385A1 (priority 2006, published 2010).

The test system of assay [1] is IBD mice (colon injury induced by acetic acid). Put plainly: Experiment I: acetic acid induced IBD in mice, glycyrrhizin and glycyrrhetinic acid. Type of assay: in vivo, KuMing mice. To be noted: glycyrrhizin 105 mg/kg, glycyrrhetinic acid 72 mg/kg; for Inflammatory score / CMDI / GSH / MPO / MDA / SOD: once per day, 10 days; for Inflammatory score: normal 0, model 7.50 ± 0.7; for CMDI: normal 0.73 ± 0.03, model 1.75 ± 0.35; for GSH / MPO / MDA / SOD: colon homogenate; for GSH: normal 0.58 ± 0.12, model 0.16 ± 0.09; for MPO: normal 3.37 ± 0.31, model 1.33 ± 0.83; for MDA: normal 10.58 ± 2.74, model 26.2 ± 5.5; for SOD: normal 707 ± 105, model 309 ± 68; for CMDI of IBD mice decreased / MPO activity increased / inflammatory scores were lowered: once per day for ten days. The protocol: In Adis group, mice were provided Adis 600 mg/kg afer enema, once per day. Normal control and model groups were orally given with equal amount of normal saline daily. After seven days drug treatment, all mice except for normal control were stimulated with acetic acid to induce IBD. On day six, starvation was applied after drug treatment to all groups. On day seven, after drug treatment, mice were put to sleep with ether and the procedure of enema was performed before injecting 0.1 ml of 6% acitic acid using polyethylene tubings. Acitic acid was injected into mice through anus in depth about 1.5 cm to induce IBD. One minute after the actic acid injection, wash twice with normal saline and let the animals lay down and awake naturally. For normal control, mice were treated with equal amount of saline.
Drug treatment continued to day 10 to all groups. 24 hours after the last drug treatment, the mice were sacrificed. Take and weight the whole colon, score colon organ index, and evaluate CMDI. Colon tissues were homogenized in Tris buffer and adjusted to the concentration 5% for MPO, MDA, SOD, and GSH tests.
(§1) CMDI: Cut open the mouse along the mesentery and take the whole colon. Observe peritoneal adhesion, colon ulcer, and congestion. The standard of evaluation was listed on Table 1.
(§2) Myeloperoxidase (MPO): Carefully weight tissue samples, use Tris buffer (weight to volume ratio 1:19) to prepare 5% homogenization solution by high-speed homogenizer. Handle all steps on ice. Protein concentration was determined by method Lowry and use MPO test kit.
(§3) Lipid peroxidase (MDA): TBA was used to detect MDA in the homogenization solution
Superoxide dismutas (SOD): Method of pyrogallol was used to detect the activity of SOD in the homogenization solution
(§4) Glutathione (GSH): Follow the product insert coming with the test kit to detect GSH in the samples
The total score is combined with both parts of A with B.

Assay [2] has the same test system. In words: Experiment II: acetic acid induced IBD in mice, ammonium glycyrrhizinate. The class given is in vivo, Kuming mice. Particulars: for GSH / MPO / MDA / SOD: colon homogenate; for GSH / MPO / MDA / SOD / CMDI: once per day, 10 days; for GSH: normal 0.58 ± 0.12, model 0.16 ± 0.09; for MPO: normal 3.37 ± 0.31, model 1.33 ± 0.83; for MDA: normal 10.58 ± 2.74, model 26.2 ± 5.5; for SOD: normal 707 ± 105, model 309 ± 68; for CMDI: normal 0.73 ± 0.03, model 1.75 ± 0.35. As to the method: Kuming mice were randomly distributed into seven groups consisting of normal control, model group, Adis positive control, monoammonium glycyrrhizinate oral administration, diammonium glycyrrhizinate oral administration, triammonium glycyrrhizinate oral administration, diammonium glycyrrhizinate injection. In Adis group, mice were provided Adis 600 mg/kg after enema, once a day. In glycyrrhizinate oral administration groups, 14 mg/kg dose of individual glycyrrhizinate was applied once per day. Normal control and model group were orally given by equal amount of normal saline daily. After seven days drug treatment, all mice except for normal control were stimulated with acetic acid to induce IBD. On day six, starvation was applied after drug treatment to all groups. On day seven, after drug treatment, mice were put to sleep with ether and the procedure of enema was performed before injecting 0.1 ml of 6% acitic acid using polyethylene tubings. Acitic acid was injected into mice through anus in depth about 1.5 cm to induce IBD. One minute after the actic acid injection, wash twice with normal saline and let the animals lie down and awake naturally. For normal control, mice were treated with equal amount of saline. Drug treatment continued to day 10 to all groups. 24 hours after the last drug treatment, the mice were sacrificed. Take and weight the whole colon, score colon organ index, and evaluate CMDI. Colon tissues were homogenized in Tris buffer and adjusted to the concentration 5% for MPO, MDA, SOD, and GSH tests.
as §1, §2, §3
Superoxide dismutase (SOD): Method of pyrogallol was used to detect the activity of SOD in the homogenization solution
as §4
The total score is combined with both parts of A and B.

[3] abbreviates: injection (IP.) 14 mg/kg, once per day for ten days.
[4] abbreviates: oral 14 mg/kg, once per day for ten days.

In the case of `CC1(C)[C@@H](O[C@H]2O[C@H](C(=O)O)[C@@H](O)[C@H](O)[C@H]2O[C@@H]2O[C@H](C(=O)O)[C@@H](O)[C@H](O)[C@H]2O)CC[C@]2(C)[C@H]3C(=O)C=C4[C@@H]5C[C@@](C)(C(=O)O)CC[C@]5(C)CC[C@@]4(C)[C@]3(C)CC[C@@H]12` [Glycyrrhizin, glycyrrhizic acid], in assay [1] (IP injection), the Inflammatory score is 1.5 ± 0.41^ΔΔ, the CMDI was 0.88 ± 0.18^ΔΔ g/100 g, the GSH is on record as 0.36 ± 0.09^ΔΔ mg/mgpro and the MPO is listed as 5.59 ± 0.94^ΔΔ U/mgpro. In addition, in assay [1] (IP injection), the MDA is listed as 5.08 ± 1.91^ΔΔ nmol/mgpro and the SOD is 467 ± 49^ΔΔ U/mgpro. Further, the Inflammatory score in assay [1] (IP injection, listed as glycyrrhizin) was 1.5. In assay [1] (oral), the GSH is reported as 0.33 ± 0.22^ΔΔ mg/mgpro, the MPO is 5.09 ± 0.29^ΔΔ U/mgpro, the MDA is listed as 6.04 ± 0.89^ΔΔ nmol/mgpro and the SOD is 425 ± 12^ΔΔ U/mgpro. Moreover, in assay [1] (oral), the “CMDI of IBD mice decreased” value is on record as 82.3%, the MPO activity increased is 2.83 ×, the “inflammatory scores were lowered” value worked out at 4 × and the Inflammatory score was 1.5 ± 0.31^ΔΔ. Moreover, the CMDI in assay [1] (oral) is 0.96 ± 0.03^ΔΔ g/100 g. In addition, in assay [1] (injection (IP)), the “CMDI of IBD mice decreased” value is given as 98.86%, the MPO activity increased is given as 3.20 × and the “inflammatory scores were lowered” value came out at 4 ×. In assay [1] (oral, listed as glycyrrhizin), this compound returned an Inflammatory score of 1.5.
As for `CC1(C)[C@@H](O[C@H]2O[C@H](C(=O)O)[C@@H](O)[C@H](O)[C@H]2O[C@@H]2O[C@H](C(=O)O)[C@@H](O)[C@H](O)[C@H]2O)CC[C@]2(C)[C@H]3C(=O)C=C4[C@@H]5C[C@@](C)(C(=O)O)CC[C@]5(C)CC[C@@]4(C)[C@]3(C)CC[C@@H]12.N.N` [diammonium glycyrrhizinate], in assay [2] (injection 14 mg/kg), the GSH was 0.27 ± 0.13^ΔΔ mg/mgpro, the MPO was 3.55 ± 0.45^ΔΔ U/mgpro, the MDA was 7.85 ± 3.55^ΔΔ nmol/mgpro and the SOD is 533 ± 101^ΔΔ U/mgpro. For the same compound, the CMDI in assay [2] (injection 14 mg/kg) is recorded as 0.97 ± 0.18^ΔΔ g/100 g. In assay [2] (oral 14 mg/kg), the GSH was 0.49 ± 0.14^ΔΔ mg/mgpro, the MPO is recorded as 2.93 ± 0.26^ΔΔ U/mgpro, the MDA is reported as 8.32 ± 5.04^ΔΔ nmol/mgpro and the SOD was 505 ± 132^ΔΔ U/mgpro. The CMDI in assay [2] (oral 14 mg/kg) was 1.06 ± 0.31^ΔΔ g/100 g. For the same compound, in assay [2] (setting [3]), the “CMDI of IBD mice decreased” value turned out to be 45.7%, the MPO activity increased amounted to 1.67 × and the “inflammatory score was lowered” value is on record as 2.75 ×. In assay [2] (setting [4]), the “CMDI of IBD mice decreased” value is on record as 39.4%, the MPO activity increased came out at 1.20 × and the “inflammatory scores were lowered” value stood at 1.73 ×.
In the case of `CC1(C)C2CC[C@]3(C)C(C(=O)C=C4C5C[C@@](C)(C(=O)O)CC[C@]5(C)CCC43C)[C@@]2(C)CC[C@@H]1O` (some centres unmarked) [glycyrrhetinic acid], in assay [1] (IP injection), the CMDI is recorded as 1.07 ± 0.28^ΔΔ g/100 g, the GSH is 0.31 ± 0.08^ΔΔ mg/mgpro, the MPO is 4.51 ± 0.35^ΔΔ U/mgpro and the MDA is recorded as 5.85 ± 1.33^ΔΔ nmol/mgpro. In assay [1] (oral), the GSH was 0.31 ± 0.08^ΔΔ mg/mgpro, the MPO was 3.48 ± 0.46^ΔΔ U/mgpro, the MDA is 4.56 ± 2.28^ΔΔ nmol/mgpro and the “CMDI of IBD mice decreased” value was 57.65%. Besides, in assay [1] (oral), the MPO activity increased stood at 1.62 × and the CMDI is given as 1.11 ± 0.41^ΔΔ g/100 g. Also, in assay [1] (injection (IP)), the “CMDI of IBD mice decreased” value amounted to 63.55%, the MPO activity increased is 2.39 × and the “inflammatory scores were lowered” value came out at 2.75 ×.
Take `CC1(C)[C@@H](O[C@H]2O[C@H](C(=O)O)[C@@H](O)[C@H](O)[C@H]2O[C@@H]2O[C@H](C(=O)O)[C@@H](O)[C@H](O)[C@H]2O)CC[C@]2(C)[C@H]3C(=O)C=C4[C@@H]5C[C@@](C)(C(=O)O)CC[C@]5(C)CC[C@@]4(C)[C@]3(C)CC[C@@H]12.N` [monoammonium glycyrrhizinate]: in assay [2] (oral 14 mg/kg), the GSH was 0.32 ± 0.12^ΔΔ mg/mgpro, the MPO is 2.99 ± 0.26^ΔΔ U/mgpro, the MDA was 16.14 ± 5.81^ΔΔ nmol/mgpro and the SOD was 412 ± 112^ΔΔ U/mgpro. Also, in assay [2] (oral 14 mg/kg), the CMDI is 1.50 ± 0.03^Δ g/100 g. Also, in assay [2] (setting [4]), the “CMDI of IBD mice decreased” value is 14.3%, the MPO activity increased was determined as 1.25 × and the “inflammatory scores were lowered” value is reported as 1.5 ×.
As for `CC1(C)[C@@H](O[C@H]2O[C@H](C(=O)O)[C@@H](O)[C@H](O)[C@H]2O[C@@H]2O[C@H](C(=O)O)[C@@H](O)[C@H](O)[C@H]2O)CC[C@]2(C)[C@H]3C(=O)C=C4[C@@H]5C[C@@](C)(C(=O)O)CC[C@]5(C)CC[C@@]4(C)[C@]3(C)CC[C@@H]12` [triammonium glycyrrhizinate], in assay [2] (oral 14 mg/kg), the GSH is on record as 0.26 ± 0.09^ΔΔ mg/mgpro, the MPO is given as 1.59 ± 0.94^ΔΔ U/mgpro, the MDA is reported as 16.88 ± 5.97^ΔΔ nmol/mgpro and the SOD is on record as 368 ± 79^ΔΔ U/mgpro. Besides, the CMDI in assay [2] (oral 14 mg/kg) was 1.49 ± 0.08^ΔΔ g/100 g. In addition, in assay [2] (setting [4]), the “CMDI of IBD mice decreased” value is listed as 14.9%, the MPO activity increased is 0.20 × and the “inflammatory scores were lowered” value was 1.5 ×.
